From PubChem BioAssay AID1963421 (Molecular Pharmacology Branch, DTP, NCI, 2024)
Several values for one entry are separate records, joined by “and”; a condition that tells them apart may be missing. Equal values may be shown once.

Test system: 519858-162-T-J1-PDC complex spheroid growth, % test/control
Assay: Anticancer human tumor 519858-162-T-J1-PDC patient-derived colon adenocarcinoma cell line growth inhibition [Asc]
Conditions: for viability, T/C: stronger effect = lower value
Outline: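 Stromal components (HUVEC and hMSC) are co-assembled with the cancer cells into multicellular spheroids. Drugs are then added singly or paired, at concentrations falling by half-log increments from a clinically achievable maximum, capped at 10 microM without known Cmax.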

[1] = curve of first compound, second compound 0.0316 µM
[2] = curve of first compound, second compound 0.1 µM
[3] = curve of first compound, second compound 0.316 µM
[4] = curve of first compound, second compound 1 µM
[5] = curve of first compound, second compound 3.16 µM
[6] = curve of first compound, second compound 10 µM
[7] = second compound 0.0316 µM, first compound 0.00316 µM
[8] = second compound 0.0316 µM, first compound 0.01 µM
[9] = second compound 0.0316 µM, first compound 0.0316 µM
[10] = second compound 0.0316 µM, first compound 0.1 µM
[11] = second compound 0.0316 µM, first compound 0.316 µM
[12] = second compound 0.0316 µM, first compound 1 µM
[13] = second compound 0.1 µM, first compound 0.00316 µM
[14] = second compound 0.1 µM, first compound 0.01 µM
[15] = second compound 0.1 µM, first compound 0.0316 µM
[16] = second compound 0.1 µM, first compound 0.1 µM
[17] = second compound 0.1 µM, first compound 0.316 µM
[18] = second compound 0.1 µM, first compound 1 µM
[19] = second compound 0.316 µM, first compound 0.00316 µM
[20] = second compound 0.316 µM, first compound 0.01 µM
[21] = second compound 0.316 µM, first compound 0.0316 µM
[22] = second compound 0.316 µM, first compound 0.1 µM
[23] = second compound 0.316 µM, first compound 0.316 µM
[24] = second compound 0.316 µM, first compound 1 µM
[25] = second compound 1 µM, first compound 0.00316 µM
[26] = second compound 1 µM, first compound 0.01 µM
[27] = second compound 1 µM, first compound 0.0316 µM
[28] = second compound 1 µM, first compound 0.1 µM
[29] = second compound 1 µM, first compound 0.316 µM
[30] = second compound 1 µM, first compound 1 µM
[31] = second compound 3.16 µM, first compound 0.00316 µM
[32] = second compound 3.16 µM, first compound 0.01 µM
[33] = second compound 3.16 µM, first compound 0.0316 µM
[34] = second compound 3.16 µM, first compound 0.1 µM
[35] = second compound 3.16 µM, first compound 0.316 µM
[36] = second compound 3.16 µM, first compound 1 µM
[37] = second compound 10 µM, first compound 0.00316 µM
[38] = second compound 10 µM, first compound 0.01 µM
[39] = second compound 10 µM, first compound 0.0316 µM
[40] = second compound 10 µM, first compound 0.1 µM
[41] = second compound 10 µM, first compound 0.316 µM
[42] = second compound 10 µM, first compound 1 µM
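Further: seven day drug exposure begun three days after spheroid seeding.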
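Wherever viability, T/C is given: 100% = DMSO vehicle wells and lower values mean less viable spheroid.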

CNC(C)C(=O)NC1CN(S(=O)(=O)c2cccc(S(=O)(=O)N3CCC4CCC(C(=O)NC(c5ccccc5)c5ccccc5)N4C(=O)C(NC(=O)C(C)NC)C3)c2)CCC2CCC(C(=O)NC(c3ccccc3)c3ccccc3)N2C1=O (stereo unspecified) + Cc1c(S(C)(=O)=O)c(-c2cc(F)cc(N3CCN(c4ccc(NS(=O)(=O)c5ccc(NC(CCN6CCC(C(=O)OCCCP(=O)(O)O)CC6)CSc6ccccc6)c(S(=O)(=O)C(F)(F)F)c5)cc4)CC3)c2)c(-c2ccc(Cl)cc2)n1C(C)C
IC50 [1]: > 1000 nM
IC50 [2]: > 1000 nM
IC50 [3]: > 1000 nM
IC50 [4]: > 1000 nM
IC50 [5]: > 1000 nM
IC50 [6]: 506 nM
viability, T/C [7]: 92.5%
viability, T/C [8]: 110%
viability, T/C [9]: 45%
viability, T/C [10]: 110%
viability, T/C [11]: 81.5%
viability, T/C [12]: 81.5%
viability, T/C [13]: 113%
viability, T/C [14]: 117%
viability, T/C [15]: 124%
viability, T/C [16]: 90%
viability, T/C [17]: 76.7%
viability, T/C [18]: 97.5%
viability, T/C [19]: 104%
viability, T/C [20]: 107%
viability, T/C [21]: 86.8%
viability, T/C [22]: 78.5%
viability, T/C [23]: 72.3%
viability, T/C [24]: 87.1%
viability, T/C [25]: 102%
viability, T/C [26]: 100%
viability, T/C [27]: 83.6%
viability, T/C [28]: 93%
viability, T/C [29]: 96.5%
viability, T/C [30]: 68.9%
viability, T/C [31]: 86.9%
viability, T/C [32]: 93%
viability, T/C [33]: 95.7%
viability, T/C [34]: 82.5%
viability, T/C [35]: 66.8%
viability, T/C [36]: 75%
viability, T/C [37]: 60.5%
viability, T/C [38]: 63.2%
viability, T/C [39]: 70.2%
viability, T/C [40]: 49%
viability, T/C [41]: 63.1%
viability, T/C [42]: 33.9%

CCN1CCN(Cc2ccc(Nc3ncc(F)c(-c4cc(F)c5nc(C)n(C(C)C)c5c4)n3)nc2)CC1
viability, T/C (compound 0.00316 µM): 112% and 91.6% and 83.9%
viability, T/C (compound 0.01 µM): 104% and 98.3% and 105%
viability, T/C (compound 0.0316 µM): 91% and 73.6% and 115%
viability, T/C (compound 0.1 µM): 87.1% and 75.9% and 100%
viability, T/C (compound 0.316 µM): 73.9% and 61.4% and 72.9%
viability, T/C (compound 1 µM): 62% and 46.7% and 81.3%
IC50 (curve of compound): > 1000 nM and 793 nM

CCN1CCN(Cc2ccc(Nc3ncc(F)c(-c4cc(F)c5nc(C)n(C(C)C)c5c4)n3)nc2)CC1 + Cc1c(S(C)(=O)=O)c(-c2cc(F)cc(N3CCN(c4ccc(NS(=O)(=O)c5ccc(NC(CCN6CCC(C(=O)OCCCP(=O)(O)O)CC6)CSc6ccccc6)c(S(=O)(=O)C(F)(F)F)c5)cc4)CC3)c2)c(-c2ccc(Cl)cc2)n1C(C)C
IC50 [1]: > 1000 nM
IC50 [2]: > 1000 nM
IC50 [3]: > 1000 nM
IC50 [4]: > 1000 nM
IC50 [5]: > 1000 nM
IC50 [6]: > 1000 nM
viability, T/C [7]: 124%
viability, T/C [8]: 106%
viability, T/C [9]: 62.9%
viability, T/C [10]: 92%
viability, T/C [11]: 84.8%
viability, T/C [12]: 72.3%
viability, T/C [13]: 109%
viability, T/C [14]: 95.8%
viability, T/C [15]: 89.2%
viability, T/C [16]: 86.3%
viability, T/C [17]: 79.5%
viability, T/C [18]: 112%
viability, T/C [19]: 119%
viability, T/C [20]: 109%
viability, T/C [21]: 98.3%
viability, T/C [22]: 60.5%
viability, T/C [23]: 95.6%
viability, T/C [24]: 69.7%
viability, T/C [25]: 87.4%
viability, T/C [26]: 76%
viability, T/C [27]: 62.6%
viability, T/C [28]: 79%
viability, T/C [29]: 75.2%
viability, T/C [30]: 56.4%
viability, T/C [31]: 90.5%
viability, T/C [32]: 68.6%
viability, T/C [33]: 101%
viability, T/C [34]: 73.7%
viability, T/C [35]: 67%
viability, T/C [36]: 57.2%
viability, T/C [37]: 77.7%
viability, T/C [38]: 61.1%
viability, T/C [39]: 62.6%
viability, T/C [40]: 72.8%
viability, T/C [41]: 63.3%
viability, T/C [42]: 68%
